Measurements taken from patent US9051240B2, “Substituted 2-[2-(phenyl) ethylamino] alkaneamide derivatives and their use as sodium and/or calcium channel modulators” (Newron Pharmaceuticals S.P.A., priority 2007, dated 2015).

Experiments:
mice = assay: Acetic acid-induced visceral pain model in mice; type: in vivo; conditions: 20 mg/Kg p.o.
Source text: The acetic acid-induced visceral pain model is widely used in experimental research to produce abdominal contractions (Korster R et al., Fed. Pro. (1959) 18: 412; Friese N et al., Life Sci. (1997) 60: 625-634) The model consists of intraperitoneal (i.p.) injection of an irritant that induces a syndrome called ‘writhing’, which consists of contractions of the abdomen, twisting and turning of the trunk, arching of the back and extension of the hind limbs.
Animals and procedure: Male CD1 mice weighing 25-33 g were used. Each treated group was allowed 30 min to habituate to laboratory surroundings in individual polypropylene transparent boxes. The visceral pain was scored by counting the number of writhes for 10 min after i.p. injection of 0.6% acetic acid (10 ml/kg of body weight). The number of writhes after acetic acid administration were evaluated. Both complete body stretching (complete writhe) or partial stretching with a clear contracting of the abdomen (partial writhe) were counted.
Separate groups of 10 mice each were administered orally with vehicle (10 ml/kg), or different doses of the tested compound dissolved in vehicle (10 ml/kg), 5 min before acetic acid injection. Data are expressed as the mean number of writhes during the 10 min observation period.

L-type calcium channels = assay: Calcium channel influx assay (fluorescence, AtT20 cell line); type: cell-based, mouse; conditions: AtT20 cells, 100 mM KCl depolarization; read-out: Ca++ influx IC50
Method: AtT20/D16v-F2 mouse pituitary tumour cell line preferentially expresses L-type calcium channels.
AtT20 cells were grown in DMEM with 10% of FBS, 4 mM glutamine. The cells were seeded at 200,000 cells/well on 96 poly-L-lysine-coated plates and further incubated for 18-24 h, before use.
The Ca^++ Kit Assay (Molecular Devices), which is based on a fluorescent calcium indicator to detect the calcium influx determined by depolarizing conditions, was used for the assay.
Cells were incubated with the calcium dye loading for 30 min at 37° C. Then, ω-conotoxin alone (1 μM) or in presence of nifedipine (as reference standard) or test compound were added for further 15 min.
The fluorescence (excitation: 485-emission: 535 nm wavelength) was measured before and after (30-40 sec) the automated injection of 100 mM KCl depolarizing solution using a Victor plate reader (Perkin Elmer).
The inhibition curves were calculated from 5 concentrations, each in triplicate, and the IC50 determined using linear regression analysis.

SMILES	number of writhes, significance vs. vehicle (mice)	IC50 (L-type calcium channels) [µM]
CCCCOc1cccc(CCNCC(=O)N(C)C)c1.Cl [2-[2-(3-Butoxyphenyl)-ethylamino]-N,N-dimethylacetamide hydrochloride]	p<0.01 vs. vehicle	
C[C@H](NCc1ccc(OCc2ccccc2F)cc1)C(N)=O [ralfinamide, (S)-(+)-2-[4-(2-fluorobenzyloxy)-benzylamino]-propanamide, reference compound]		26
